From patent US8507504B2, “Process for producing bicycloaniline derivatives” (Merck Sharp & Dohme Corp., priority 2008, dated 2013) come the findings set out here.

This experiment relates to Human colon cancer cells WiDr. The experiment is described as follows: Tumor growth inhibitory effect, WiDr xenograft in nude rats, combined with gemcitabine. Type of experiment: in vivo, F344/N Jcl-rnu nude rats. Particulars: summary of Table 1. The procedure: Pharmacological Test 2 (Tumor Growth Inhibitory Effect)
Human colon cancer cells WiDr (obtained from ATCC) were implanted into the subcutaneous area of the back of F344/N Jcl-rnu nude rats. 12 days after the implantation, 5 mg/kg of gemcitabine (Gemzar, from Eli Lily) was intravenously administered to them; and after 24 hours, a test compound suspended in a solvent (0.5% methyl cellulose) was orally administered thereto. This was repeated once a week for 3 weeks. The tumor volume (0.5×major diameter×(minor diameter)^2) was measured on days 0, 3, 6, 10, 13, 17, 20, 24 and 27 (the first gemcitabine administration is on day 0). The relative tumor volume was calculated, based on the tumor volume on day 0, as 1. The tumor growth rate (% T/C) was obtained according to the formulae mentioned below.
In case where the tumor volume change from day 0 in the test compound administration group is more than 0 (>0): % T/C=(tumor volume change in the test compound group on days 3, 6, 10, 13, 17, 20, 24 and 27/tumor volume change in the control group on days 3, 6, 10, 13, 17, 20, 24 and 27)×100.
In case where the tumor volume change from day 0 in the test compound administration group is less than 0 (<0): % T/C=(tumor volume change in the test compound group on days 3, 6, 10, 13, 17, 20, 24 and 27/tumor volume […] in the test compound group on day 0)×100. […]

Take `Nc1ccn([C@@H]2O[C@H](CO)[C@@H](O)C2(F)F)c(=O)n1` [Gemcitabine, gemcitabine]: the “tumor growth rate (result in words)” value was “reduced the tumor growth rate”.
